# From ChEMBL document CHEMBL3885861, “Open TG-GATES”
# Organism: Rattus norvegicus
# Experiment: Open TG-GATES - Regimen: Daily Repeat
# Format: toxicity, organism-based, Sprague-Dawley
# Parameters: regimen Daily Repeat, gender Male, age 6 weeks
# Settings: in vivo, po, 30 mg/kg, route gavage, dose level Low; for APTT / Bas / Eos / Fbg / Hb / Ht / Lym / MCH / MCHC / MCV / Mono / Neu / PT / Plat / RBC / Ret / WBC: tissue Blood; for KIDNEY_L / KIDNEY_R / KIDNEY_TOTAL: tissue Kidney; for LIVER: tissue Liver; for A/G / ALP / ALT / AST / BUN / CRE / Ca / Cl / DBIL / GLC / IP / K / LDH / Na / PL / RALB / TBIL / TC / TG / TP / gamma-GTP: tissue Plasma
structure (smiles),measurement,setting,value
O=C(O)COc1nn(Cc2ccccc2)c2ccccc12 [BENDAZAC],TERMINAL_BW,"72 h, time 3 day",236.5 g
same,APTT,"72 h, time 3 day",17 s
same,Bas,"72 h, time 3 day",0%
same,Eos,"72 h, time 3 day",1.4%
same,Fbg,"72 h, time 3 day",215.2 mg/dL
same,Hb,"72 h, time 3 day",13.4 g/dL
same,Ht,"72 h, time 3 day",40.6%
same,Lym,"72 h, time 3 day",79.2%
same,MCH,"72 h, time 3 day",21.1 pg
same,MCHC,"72 h, time 3 day",33%
same,MCV,"72 h, time 3 day",63.9 fL
same,Mono,"72 h, time 3 day",6.6%
same,Neu,"72 h, time 3 day",12.8%
same,PT,"72 h, time 3 day",11.9 s
same,Plat,"72 h, time 3 day",128 x10_4/uL
same,RBC,"72 h, time 3 day",636 x10_4/ul
same,Ret,"72 h, time 3 day",6.9%
same,WBC,"72 h, time 3 day",98.4 x10_2/uL
same,KIDNEY_L,"72 h, time 3 day",1 g
same,KIDNEY_R,"72 h, time 3 day",1 g
same,KIDNEY_TOTAL,"72 h, time 3 day",2.1 g
same,LIVER,"72 h, time 3 day",11.9 g
same,A/G,"72 h, time 3 day",2.2
same,ALP,"72 h, time 3 day",891 IU/L
same,ALT,"72 h, time 3 day",36.6 IU/L
same,AST,"72 h, time 3 day",66.6 IU/L
same,BUN,"72 h, time 3 day",17.2 mg/dL
same,CRE,"72 h, time 3 day",0.6 mg/dL
same,Ca,"72 h, time 3 day",11 mg/dL
same,Cl,"72 h, time 3 day",103 meq/L
same,DBIL,"72 h, time 3 day",0.018 mg/dL
same,GLC,"72 h, time 3 day",205.2 mg/dL
same,IP,"72 h, time 3 day",7.5 mg/dL
same,K,"72 h, time 3 day",4.5 meq/L
same,LDH,"72 h, time 3 day",128 IU/L
same,Na,"72 h, time 3 day",140.4 meq/L
same,PL,"72 h, time 3 day",149.8 mg/dL
same,RALB,"72 h, time 3 day",3.9 g/dL
same,TBIL,"72 h, time 3 day",0.4 mg/dL
same,TC,"72 h, time 3 day",74.4 mg/dL
same,TG,"72 h, time 3 day",99.6 mg/dL
same,TP,"72 h, time 3 day",5.7 g/dL
same,gamma-GTP,"72 h, time 3 day",0.8 IU/L
same,TERMINAL_BW,"[…], time 7 day",260.1 g
same,TERMINAL_BW,"[…], time 14 day",298.7 g
same,TERMINAL_BW,"[…], time 28 day",393.4 g
same,APTT,"[…], time 7 day",17.3 s
same,Bas,"[…], time 7 day",0%
same,Eos,"[…], time 7 day",1.2%
same,Fbg,"[…], time 7 day",214.6 mg/dL
same,Hb,"[…], time 7 day",14.1 g/dL
same,Ht,"[…], time 7 day",41.5%
same,Lym,"[…], time 7 day",78.4%
same,MCH,"[…], time 7 day",21.2 pg
same,MCHC,"[…], time 7 day",34%
same,MCV,"[…], time 7 day",62.4 fL
same,Mono,"[…], time 7 day",6.8%
same,Neu,"[…], time 7 day",14%
same,PT,"[…], time 7 day",11.7 s
same,Plat,"[…], time 7 day",131.9 x10_4/uL
same,RBC,"[…], time 7 day",665.6 x10_4/ul
same,Ret,"[…], time 7 day",6.1%
same,WBC,"[…], time 7 day",109.2 x10_2/uL
same,APTT,"[…], time 14 day",17.1 s
same,Bas,"[…], time 14 day",0%
same,Eos,"[…], time 14 day",0.6%
same,Fbg,"[…], time 14 day",228.2 mg/dL
same,Hb,"[…], time 14 day",14.9 g/dL
same,Ht,"[…], time 14 day",44%
same,Lym,"[…], time 14 day",85.2%
same,MCH,"[…], time 14 day",20.6 pg
same,MCHC,"[…], time 14 day",33.8%
same,MCV,"[…], time 14 day",61 fL
same,Mono,"[…], time 14 day",3.4%
same,Neu,"[…], time 14 day",10.4%
same,PT,"[…], time 14 day",11 s
same,Plat,"[…], time 14 day",121.3 x10_4/uL
same,RBC,"[…], time 14 day",720.6 x10_4/ul
same,Ret,"[…], time 14 day",2.8%
same,WBC,"[…], time 14 day",112.1 x10_2/uL
same,APTT,"[…], time 28 day",17.2 s
same,Bas,"[…], time 28 day",0%
same,Eos,"[…], time 28 day",1.2%
same,Fbg,"[…], time 28 day",217.6 mg/dL
same,Hb,"[…], time 28 day",15.4 g/dL
same,Ht,"[…], time 28 day",45.1%
same,Lym,"[…], time 28 day",77.4%
same,MCH,"[…], time 28 day",19.3 pg
same,MCHC,"[…], time 28 day",34.1%
same,MCV,"[…], time 28 day",56.7 fL
same,Mono,"[…], time 28 day",5.4%
same,Neu,"[…], time 28 day",15.4%
same,PT,"[…], time 28 day",12 s
same,Plat,"[…], time 28 day",119.3 x10_4/uL
same,RBC,"[…], time 28 day",796.6 x10_4/ul
same,Ret,"[…], time 28 day",2.3%
same,WBC,"[…], time 28 day",105.4 x10_2/uL
same,KIDNEY_L,"[…], time 7 day",1.1 g
same,KIDNEY_R,"[…], time 7 day",1.1 g
same,KIDNEY_TOTAL,"[…], time 7 day",2.2 g
same,KIDNEY_L,"[…], time 14 day",1.2 g
same,KIDNEY_R,"[…], time 14 day",1.2 g
same,KIDNEY_TOTAL,"[…], time 14 day",2.5 g
same,KIDNEY_L,"[…], time 28 day",1.5 g
same,KIDNEY_R,"[…], time 28 day",1.5 g
same,KIDNEY_TOTAL,"[…], time 28 day",2.9 g
same,LIVER,"[…], time 7 day",12.5 g
same,LIVER,"[…], time 14 day",13.5 g
same,LIVER,"[…], time 28 day",16.7 g
same,A/G,"[…], time 7 day",2.1
same,ALP,"[…], time 7 day",930 IU/L
same,ALT,"[…], time 7 day",32.8 IU/L
same,AST,"[…], time 7 day",68.4 IU/L
same,BUN,"[…], time 7 day",18.6 mg/dL
same,CRE,"[…], time 7 day",0.5 mg/dL
same,Ca,"[…], time 7 day",10.9 mg/dL
same,Cl,"[…], time 7 day",104.8 meq/L
same,DBIL,"[…], time 7 day",0 mg/dL
same,GLC,"[…], time 7 day",214.2 mg/dL
same,IP,"[…], time 7 day",7.2 mg/dL
same,K,"[…], time 7 day",4.5 meq/L
same,LDH,"[…], time 7 day",94.4 IU/L
same,Na,"[…], time 7 day",142 meq/L
same,PL,"[…], time 7 day",145.4 mg/dL
same,RALB,"[…], time 7 day",3.9 g/dL
same,TBIL,"[…], time 7 day",0.4 mg/dL
same,TC,"[…], time 7 day",72 mg/dL
same,TG,"[…], time 7 day",114.6 mg/dL
same,TP,"[…], time 7 day",5.7 g/dL
same,gamma-GTP,"[…], time 7 day",0.8 IU/L
same,A/G,"[…], time 14 day",1.7
same,ALP,"[…], time 14 day",683.4 IU/L
same,ALT,"[…], time 14 day",31.6 IU/L
same,AST,"[…], time 14 day",62.6 IU/L
same,BUN,"[…], time 14 day",18.4 mg/dL
same,CRE,"[…], time 14 day",0.5 mg/dL
same,Ca,"[…], time 14 day",10.5 mg/dL
same,Cl,"[…], time 14 day",105.8 meq/L
same,DBIL,"[…], time 14 day",0.03 mg/dL
same,GLC,"[…], time 14 day",185.4 mg/dL
same,IP,"[…], time 14 day",6.9 mg/dL
same,K,"[…], time 14 day",4.6 meq/L
same,LDH,"[…], time 14 day",131.8 IU/L
same,Na,"[…], time 14 day",140.8 meq/L
same,PL,"[…], time 14 day",154.2 mg/dL
same,RALB,"[…], time 14 day",3.8 g/dL
same,TBIL,"[…], time 14 day",0.3 mg/dL
same,TC,"[…], time 14 day",73.2 mg/dL
same,TG,"[…], time 14 day",125.8 mg/dL
same,TP,"[…], time 14 day",6 g/dL
same,gamma-GTP,"[…], time 14 day",1.4 IU/L
same,A/G,"[…], time 28 day",1.5
same,ALP,"[…], time 28 day",780.4 IU/L
same,ALT,"[…], time 28 day",30.4 IU/L
same,AST,"[…], time 28 day",62.4 IU/L
same,BUN,"[…], time 28 day",17.6 mg/dL
same,CRE,"[…], time 28 day",0.5 mg/dL
same,Ca,"[…], time 28 day",10 mg/dL
same,Cl,"[…], time 28 day",104.2 meq/L
same,DBIL,"[…], time 28 day",0.006 mg/dL
same,GLC,"[…], time 28 day",192.2 mg/dL
same,IP,"[…], time 28 day",6 mg/dL
same,K,"[…], time 28 day",4.4 meq/L
same,LDH,"[…], time 28 day",90 IU/L
same,Na,"[…], time 28 day",139.6 meq/L
same,PL,"[…], time 28 day",147.6 mg/dL
same,RALB,"[…], time 28 day",3.7 g/dL
same,TBIL,"[…], time 28 day",0.3 mg/dL
same,TC,"[…], time 28 day",68.2 mg/dL
same,TG,"[…], time 28 day",169 mg/dL
same,TP,"[…], time 28 day",6.3 g/dL
same,gamma-GTP,"[…], time 28 day",1.6 IU/L
